Reference: PMC2848328 (The Journal of biological chemistry, 2006)

Target: T1, AMAN-2 (F58H1.1; Golgi α-mannosidase II) (Caenorhabditis elegans, UniProt Q2PJ74)
T1 sequence (Q2PJ74 125-1145): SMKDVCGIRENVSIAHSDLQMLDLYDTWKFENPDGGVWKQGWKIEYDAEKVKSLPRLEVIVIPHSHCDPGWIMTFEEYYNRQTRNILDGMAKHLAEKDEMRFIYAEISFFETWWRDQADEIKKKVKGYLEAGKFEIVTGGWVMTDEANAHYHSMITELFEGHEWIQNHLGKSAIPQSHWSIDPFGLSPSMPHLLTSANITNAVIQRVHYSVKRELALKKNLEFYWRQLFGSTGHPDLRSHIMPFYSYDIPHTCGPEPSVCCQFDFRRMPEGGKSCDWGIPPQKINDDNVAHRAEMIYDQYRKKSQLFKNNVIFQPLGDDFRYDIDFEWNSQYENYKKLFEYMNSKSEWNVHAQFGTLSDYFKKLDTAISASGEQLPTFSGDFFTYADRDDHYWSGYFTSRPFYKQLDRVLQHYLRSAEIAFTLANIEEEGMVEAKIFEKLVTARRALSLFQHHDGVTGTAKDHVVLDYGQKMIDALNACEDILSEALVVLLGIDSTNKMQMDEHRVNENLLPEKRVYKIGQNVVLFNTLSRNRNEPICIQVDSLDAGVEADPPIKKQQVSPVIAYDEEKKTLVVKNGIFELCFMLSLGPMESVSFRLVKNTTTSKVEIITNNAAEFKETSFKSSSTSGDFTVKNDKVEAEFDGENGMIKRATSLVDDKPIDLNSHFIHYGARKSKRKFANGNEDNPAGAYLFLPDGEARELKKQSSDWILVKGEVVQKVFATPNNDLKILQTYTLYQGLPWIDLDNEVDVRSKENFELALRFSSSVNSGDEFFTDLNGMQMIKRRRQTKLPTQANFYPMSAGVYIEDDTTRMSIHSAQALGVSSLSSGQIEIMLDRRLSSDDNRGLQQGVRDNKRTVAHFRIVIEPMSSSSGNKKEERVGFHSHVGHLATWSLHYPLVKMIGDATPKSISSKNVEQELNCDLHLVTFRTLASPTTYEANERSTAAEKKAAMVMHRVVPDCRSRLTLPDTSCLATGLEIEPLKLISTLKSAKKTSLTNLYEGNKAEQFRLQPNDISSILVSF
Assay: inhibition of p-nitrophenyl-α-mannoside hydrolysis, A405
Format: biochemical
Conditions: read-out: % inhibition at 1 mM

In the case of OC[C@H]1NC[C@@H](O)[C@@H](O)[C@@H]1O [deoxymannojirimycin], the inhibition at 1000 µM is reported as about 45%.
